In the kinase profiling compilation of Christmann-Franck et al. (2016):

Columns and labels:
Experiment in all cases: KINOMEscan competition binding
Details in all cases: compound 10.0 µM
MYLK3 (human) = MYLK3 (human) (UniProt Q32MK0)
YSK4 (human) = YSK4 (human) (UniProt Q56UN5)
RPS6KA4 KD1 (human) = RPS6KA4 KD1 (human) (UniProt O75676)
MAP2K6 (human) = MAP2K6 (human) (UniProt P52564)
PAK4 (human) = PAK4 (human) (UniProt O96013)
ACVR1 (human) = ACVR1 (human) (UniProt Q04771)
PIK3CB (human) = PIK3CB (human) (UniProt P42338)
EPHA4 (human) = EPHA4 (human) (UniProt P54764)
FER (human) = FER (human) (UniProt P16591)
[1] = test system: KIT (human), P10721 [D816V]
FGFR1 (human) = FGFR1 (human) (UniProt P11362)
PIK3C2B (human) = PIK3C2B (human) (UniProt O00750)
RIPK2 (human) = RIPK2 (human) (UniProt O43353)
Sequence of RIPK2 (human) (O43353 whole entry, looked up): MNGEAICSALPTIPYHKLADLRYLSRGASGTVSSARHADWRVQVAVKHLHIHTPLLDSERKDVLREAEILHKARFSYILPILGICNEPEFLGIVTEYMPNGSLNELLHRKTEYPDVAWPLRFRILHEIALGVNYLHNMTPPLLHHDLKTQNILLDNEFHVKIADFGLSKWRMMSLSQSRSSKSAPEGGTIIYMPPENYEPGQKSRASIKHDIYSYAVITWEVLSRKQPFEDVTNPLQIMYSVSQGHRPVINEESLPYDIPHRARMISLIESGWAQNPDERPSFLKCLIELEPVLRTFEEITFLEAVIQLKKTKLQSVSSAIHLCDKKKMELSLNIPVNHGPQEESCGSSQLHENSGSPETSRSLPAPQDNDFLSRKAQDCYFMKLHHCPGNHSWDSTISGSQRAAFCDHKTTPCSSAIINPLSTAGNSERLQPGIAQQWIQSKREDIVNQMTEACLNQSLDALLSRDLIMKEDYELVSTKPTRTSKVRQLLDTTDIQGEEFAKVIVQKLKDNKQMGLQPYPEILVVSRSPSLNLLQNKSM

STK17B (human) = STK17B (human) (UniProt O94768)
[2] = test system: PIK3CA (human), P42336 [H1047Y]
[3] = test system: PIK3CA (human), P42336 [Q546K]
DMPK (human) = DMPK (human) (UniProt Q09013)
Sequence of DMPK (human) (Q09013 whole entry, looked up): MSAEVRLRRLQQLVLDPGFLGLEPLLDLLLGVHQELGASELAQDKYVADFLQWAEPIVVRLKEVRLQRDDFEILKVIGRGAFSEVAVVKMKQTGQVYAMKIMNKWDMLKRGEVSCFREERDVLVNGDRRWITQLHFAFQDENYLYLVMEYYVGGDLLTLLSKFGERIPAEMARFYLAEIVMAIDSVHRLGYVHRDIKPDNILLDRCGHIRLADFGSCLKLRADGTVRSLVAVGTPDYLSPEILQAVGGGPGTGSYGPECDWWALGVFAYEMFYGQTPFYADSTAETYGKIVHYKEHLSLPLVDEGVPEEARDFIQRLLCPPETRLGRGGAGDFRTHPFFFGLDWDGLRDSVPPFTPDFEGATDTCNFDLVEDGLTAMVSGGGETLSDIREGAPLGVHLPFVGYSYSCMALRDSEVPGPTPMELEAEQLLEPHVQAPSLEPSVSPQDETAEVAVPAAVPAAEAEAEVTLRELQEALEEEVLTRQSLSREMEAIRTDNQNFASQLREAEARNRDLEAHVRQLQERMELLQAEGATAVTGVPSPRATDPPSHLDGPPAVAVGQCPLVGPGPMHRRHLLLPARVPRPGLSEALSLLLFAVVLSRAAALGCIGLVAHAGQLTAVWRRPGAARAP

[4] = test system: PIK3CA (human), P42336 [E545A]
CDK8 (human) = CDK8 (human) (UniProt P49336)
Sequence of CDK8 (human) (P49336 whole entry, looked up): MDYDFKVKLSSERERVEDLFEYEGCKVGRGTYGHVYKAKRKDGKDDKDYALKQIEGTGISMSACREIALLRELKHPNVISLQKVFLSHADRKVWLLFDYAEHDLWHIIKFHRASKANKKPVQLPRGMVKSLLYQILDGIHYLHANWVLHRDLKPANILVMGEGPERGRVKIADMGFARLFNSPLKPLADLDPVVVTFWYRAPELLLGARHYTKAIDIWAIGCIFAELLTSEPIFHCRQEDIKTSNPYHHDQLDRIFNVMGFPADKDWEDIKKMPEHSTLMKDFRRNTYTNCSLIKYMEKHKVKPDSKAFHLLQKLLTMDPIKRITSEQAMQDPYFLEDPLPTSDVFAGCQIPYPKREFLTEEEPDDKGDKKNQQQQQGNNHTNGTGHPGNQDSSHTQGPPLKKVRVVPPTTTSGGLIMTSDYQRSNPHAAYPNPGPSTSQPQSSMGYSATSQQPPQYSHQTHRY

STK4 (human) = STK4 (human) (UniProt Q13043)
DCLK1 (human) = DCLK1 (human) (UniProt O15075)
TXK (human) = TXK (human) (UniProt P42681)
STK24 (human) = STK24 (human) (UniProt Q9Y6E0)
SIK3 (human) = SIK3 (human) (UniProt Q9Y2K2)
MAP3K1 (human) = MAP3K1 (human) (UniProt Q13233)
MARK3 (human) = MARK3 (human) (UniProt P27448)
ACVR2B (human) = ACVR2B (human) (UniProt Q13705)
PLK4 (human) = PLK4 (human) (UniProt O00444)
RIOK2 (human) = RIOK2 (human) (UniProt Q9BVS4)
NEK7 (human) = NEK7 (human) (UniProt Q8TDX7)
MLTK (human) = MLTK (human) (UniProt Q9NYL2)
MAP4K1 (human) = MAP4K1 (human) (UniProt Q92918)
CASK (human) = CASK (human) (UniProt O14936)
PAK6 (human) = PAK6 (human) (UniProt Q9NQU5)
Sequence of PAK6 (human) (Q9NQU5 whole entry, looked up): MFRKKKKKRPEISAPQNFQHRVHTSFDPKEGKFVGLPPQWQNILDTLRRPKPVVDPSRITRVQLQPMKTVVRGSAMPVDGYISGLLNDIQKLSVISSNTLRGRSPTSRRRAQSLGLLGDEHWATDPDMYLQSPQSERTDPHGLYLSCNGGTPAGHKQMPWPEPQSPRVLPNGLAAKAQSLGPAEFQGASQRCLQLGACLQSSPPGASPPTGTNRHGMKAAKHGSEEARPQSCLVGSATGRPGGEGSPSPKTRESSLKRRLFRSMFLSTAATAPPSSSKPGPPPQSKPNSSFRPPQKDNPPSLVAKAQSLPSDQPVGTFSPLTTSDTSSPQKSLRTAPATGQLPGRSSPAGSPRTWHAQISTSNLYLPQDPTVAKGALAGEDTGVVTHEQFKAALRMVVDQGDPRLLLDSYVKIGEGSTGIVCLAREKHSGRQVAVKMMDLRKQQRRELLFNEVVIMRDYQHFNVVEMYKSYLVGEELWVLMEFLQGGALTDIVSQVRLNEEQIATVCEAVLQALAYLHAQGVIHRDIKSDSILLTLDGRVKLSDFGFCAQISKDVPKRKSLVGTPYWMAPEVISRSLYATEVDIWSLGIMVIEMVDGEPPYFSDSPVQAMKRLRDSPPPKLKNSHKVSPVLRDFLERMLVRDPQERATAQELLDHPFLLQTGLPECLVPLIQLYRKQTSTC

[5] = target: JAK2 JH1 catalytic (human) (UniProt O60674)
RAF1 (human) = RAF1 (human) (UniProt P04049)
EPHA6 (human) = EPHA6 (human) (UniProt Q9UF33)
HIPK2 (human) = HIPK2 (human) (UniProt Q9H2X6)
TYRO3 (human) = TYRO3 (human) (UniProt Q06418)
IGF1R (human) = IGF1R (human) (UniProt P08069)

Sequence of PAK4 (human) (O96013 whole entry, looked up): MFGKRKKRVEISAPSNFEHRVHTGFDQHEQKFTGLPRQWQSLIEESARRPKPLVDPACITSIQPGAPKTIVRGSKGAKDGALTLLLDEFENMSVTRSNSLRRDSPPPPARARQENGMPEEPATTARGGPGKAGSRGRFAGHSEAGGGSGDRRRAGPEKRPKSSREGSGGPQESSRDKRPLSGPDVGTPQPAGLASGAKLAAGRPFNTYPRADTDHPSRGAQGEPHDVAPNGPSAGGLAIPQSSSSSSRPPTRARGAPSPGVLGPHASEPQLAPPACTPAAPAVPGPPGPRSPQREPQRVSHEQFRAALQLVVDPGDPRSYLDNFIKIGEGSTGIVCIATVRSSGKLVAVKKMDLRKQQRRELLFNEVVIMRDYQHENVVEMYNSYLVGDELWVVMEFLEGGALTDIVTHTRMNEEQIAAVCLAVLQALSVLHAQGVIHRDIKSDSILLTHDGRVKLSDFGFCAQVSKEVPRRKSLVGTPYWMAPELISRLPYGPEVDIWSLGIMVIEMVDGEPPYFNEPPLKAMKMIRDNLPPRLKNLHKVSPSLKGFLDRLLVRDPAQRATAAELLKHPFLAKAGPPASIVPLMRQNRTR
Sequence of YSK4 (human) (Q56UN5 whole entry, looked up): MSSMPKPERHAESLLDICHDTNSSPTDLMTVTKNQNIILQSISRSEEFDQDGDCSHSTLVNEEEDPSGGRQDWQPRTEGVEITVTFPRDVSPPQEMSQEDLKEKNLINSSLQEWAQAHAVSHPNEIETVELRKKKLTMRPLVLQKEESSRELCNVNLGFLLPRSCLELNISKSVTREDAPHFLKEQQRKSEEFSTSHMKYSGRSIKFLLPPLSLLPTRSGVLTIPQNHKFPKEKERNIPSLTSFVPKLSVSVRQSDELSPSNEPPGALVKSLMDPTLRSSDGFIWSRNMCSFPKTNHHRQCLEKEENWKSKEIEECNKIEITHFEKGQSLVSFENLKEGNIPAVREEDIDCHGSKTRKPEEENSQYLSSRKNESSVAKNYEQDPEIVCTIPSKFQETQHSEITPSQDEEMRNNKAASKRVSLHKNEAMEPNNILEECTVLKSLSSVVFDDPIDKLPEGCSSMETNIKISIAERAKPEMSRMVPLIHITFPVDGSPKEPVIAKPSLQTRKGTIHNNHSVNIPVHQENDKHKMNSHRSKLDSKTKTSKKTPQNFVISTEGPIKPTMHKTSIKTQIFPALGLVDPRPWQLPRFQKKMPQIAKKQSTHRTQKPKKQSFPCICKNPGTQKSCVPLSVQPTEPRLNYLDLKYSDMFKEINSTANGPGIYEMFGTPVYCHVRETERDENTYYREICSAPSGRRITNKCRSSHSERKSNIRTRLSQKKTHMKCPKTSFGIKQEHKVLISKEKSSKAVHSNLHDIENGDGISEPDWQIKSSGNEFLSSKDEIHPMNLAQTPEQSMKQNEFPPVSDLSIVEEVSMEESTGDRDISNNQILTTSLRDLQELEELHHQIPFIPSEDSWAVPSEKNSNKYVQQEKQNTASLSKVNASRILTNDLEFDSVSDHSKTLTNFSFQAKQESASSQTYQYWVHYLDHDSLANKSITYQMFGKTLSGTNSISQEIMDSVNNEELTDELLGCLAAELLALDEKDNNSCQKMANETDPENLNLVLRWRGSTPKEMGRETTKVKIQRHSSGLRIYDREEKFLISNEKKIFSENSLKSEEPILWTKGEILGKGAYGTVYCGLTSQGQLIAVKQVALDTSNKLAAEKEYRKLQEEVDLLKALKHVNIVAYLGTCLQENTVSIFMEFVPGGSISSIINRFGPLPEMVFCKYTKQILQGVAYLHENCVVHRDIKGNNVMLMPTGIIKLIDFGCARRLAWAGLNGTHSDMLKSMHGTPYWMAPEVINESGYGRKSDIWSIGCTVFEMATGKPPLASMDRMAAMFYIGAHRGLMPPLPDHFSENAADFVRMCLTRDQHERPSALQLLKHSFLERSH
Sequence of MYLK3 (human) (Q32MK0 whole entry, looked up): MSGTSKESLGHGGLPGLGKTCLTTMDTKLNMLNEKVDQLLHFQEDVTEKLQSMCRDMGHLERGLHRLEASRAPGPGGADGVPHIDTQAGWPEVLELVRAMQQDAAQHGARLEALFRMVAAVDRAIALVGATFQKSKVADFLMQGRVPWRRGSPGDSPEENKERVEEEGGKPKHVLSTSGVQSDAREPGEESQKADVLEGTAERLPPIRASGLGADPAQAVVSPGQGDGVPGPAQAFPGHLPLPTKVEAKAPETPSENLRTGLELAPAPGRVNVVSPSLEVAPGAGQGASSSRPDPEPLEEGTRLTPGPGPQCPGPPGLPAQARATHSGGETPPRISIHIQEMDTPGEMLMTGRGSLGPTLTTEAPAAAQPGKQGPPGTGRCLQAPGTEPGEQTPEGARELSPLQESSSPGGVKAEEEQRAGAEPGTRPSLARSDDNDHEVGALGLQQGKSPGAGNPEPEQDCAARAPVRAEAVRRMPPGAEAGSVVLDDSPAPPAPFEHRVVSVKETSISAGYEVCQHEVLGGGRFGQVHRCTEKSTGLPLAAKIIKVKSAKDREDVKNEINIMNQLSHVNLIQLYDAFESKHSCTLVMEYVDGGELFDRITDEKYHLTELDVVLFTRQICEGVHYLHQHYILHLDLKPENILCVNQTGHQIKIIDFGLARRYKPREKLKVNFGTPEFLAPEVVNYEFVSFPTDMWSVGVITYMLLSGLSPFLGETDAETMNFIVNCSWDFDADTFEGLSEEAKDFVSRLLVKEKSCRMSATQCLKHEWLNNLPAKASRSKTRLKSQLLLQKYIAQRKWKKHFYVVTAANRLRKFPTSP

N#Cc1c(NC(=O)c2cccc3ccccc23)sc2c1CCCC2
kinase still bound, per cent of control (MYLK3 (human)): 100%
kinase still bound, per cent of control (YSK4 (human)): 100%
kinase still bound, per cent of control (RPS6KA4 KD1 (human)): 91%
kinase still bound, per cent of control (MAP2K6 (human)): 100%
kinase still bound, per cent of control (PAK4 (human)): 100%
kinase still bound, per cent of control (ACVR1 (human)): 64%
kinase still bound, per cent of control (PIK3CB (human)): 100%
kinase still bound, per cent of control (EPHA4 (human)): 100%
kinase still bound, per cent of control (FER (human)): 92%
kinase still bound, per cent of control [1]: 97%
kinase still bound, per cent of control (FGFR1 (human)): 99%
kinase still bound, per cent of control (PIK3C2B (human)): 100%
kinase still bound, per cent of control (RIPK2 (human)): 58%
kinase still bound, per cent of control (STK17B (human)): 100%
kinase still bound, per cent of control [2]: 100%
kinase still bound, per cent of control [3]: 79%
kinase still bound, per cent of control (DMPK (human)): 83%
kinase still bound, per cent of control [4]: 80%
kinase still bound, per cent of control (CDK8 (human)): 100%
kinase still bound, per cent of control (STK4 (human)): 94%
kinase still bound, per cent of control (DCLK1 (human)): 100%
kinase still bound, per cent of control (TXK (human)): 100%
kinase still bound, per cent of control (STK24 (human)): 80%
kinase still bound, per cent of control (SIK3 (human)): 65%
kinase still bound, per cent of control (MAP3K1 (human)): 59%
kinase still bound, per cent of control (MARK3 (human)): 89%
kinase still bound, per cent of control (ACVR2B (human)): 67%
kinase still bound, per cent of control (PLK4 (human)): 82%
kinase still bound, per cent of control (RIOK2 (human)): 91%
kinase still bound, per cent of control (NEK7 (human)): 84%
kinase still bound, per cent of control (MLTK (human)): 87%
kinase still bound, per cent of control (MAP4K1 (human)): 89%
kinase still bound, per cent of control (CASK (human)): 71%
kinase still bound, per cent of control (PAK6 (human)): 88%
kinase still bound, per cent of control [5]: 100%
kinase still bound, per cent of control (RAF1 (human)): 100%
kinase still bound, per cent of control (EPHA6 (human)): 94%
kinase still bound, per cent of control (HIPK2 (human)): 100%
kinase still bound, per cent of control (TYRO3 (human)): 76%
kinase still bound, per cent of control (IGF1R (human)): 76%

C=CC(=O)Nc1cc(NC(=O)c2ccc(C)c(NC(=O)c3ccno3)c2)cc(C(F)(F)F)c1
kinase still bound, per cent of control (MYLK3 (human)): 91%
kinase still bound, per cent of control (YSK4 (human)): 74%
kinase still bound, per cent of control (RPS6KA4 KD1 (human)): 100%
kinase still bound, per cent of control (MAP2K6 (human)): 100%
kinase still bound, per cent of control (PAK4 (human)): 93%
kinase still bound, per cent of control (ACVR1 (human)): 84%
kinase still bound, per cent of control (PIK3CB (human)): 100%
kinase still bound, per cent of control (EPHA4 (human)): 48%
kinase still bound, per cent of control (FER (human)): 100%
kinase still bound, per cent of control [1]: 78%
kinase still bound, per cent of control (FGFR1 (human)): 100%
kinase still bound, per cent of control (PIK3C2B (human)): 100%
kinase still bound, per cent of control (RIPK2 (human)): 100%
kinase still bound, per cent of control (STK17B (human)): 89%
kinase still bound, per cent of control [2]: 95%
kinase still bound, per cent of control [3]: 78%
kinase still bound, per cent of control (DMPK (human)): 100%
kinase still bound, per cent of control [4]: 86%
kinase still bound, per cent of control (CDK8 (human)): 100%
kinase still bound, per cent of control (STK4 (human)): 99%
kinase still bound, per cent of control (DCLK1 (human)): 100%
kinase still bound, per cent of control (TXK (human)): 93%
kinase still bound, per cent of control (STK24 (human)): 100%
kinase still bound, per cent of control (SIK3 (human)): 82%
kinase still bound, per cent of control (MAP3K1 (human)): 94%
kinase still bound, per cent of control (MARK3 (human)): 67%
kinase still bound, per cent of control (ACVR2B (human)): 100%
kinase still bound, per cent of control (PLK4 (human)): 91%
kinase still bound, per cent of control (RIOK2 (human)): 92%
kinase still bound, per cent of control (NEK7 (human)): 100%
kinase still bound, per cent of control (MLTK (human)): 6%
kinase still bound, per cent of control (MAP4K1 (human)): 75%
kinase still bound, per cent of control (CASK (human)): 83%
kinase still bound, per cent of control (PAK6 (human)): 100%
kinase still bound, per cent of control [5]: 74%
kinase still bound, per cent of control (RAF1 (human)): 40%
kinase still bound, per cent of control (EPHA6 (human)): 93%
kinase still bound, per cent of control (HIPK2 (human)): 86%
kinase still bound, per cent of control (TYRO3 (human)): 93%
kinase still bound, per cent of control (IGF1R (human)): 63%
